One series in a line: in vitro. As to conditions: human.
Another series has as its system rgRSV224 virus. Nature of the series: Antiviral activity: rgRSV224 (GFP) replication in HeLa cells. The following applies: human respiratory syncytial virus, 72 h, read-out: RSV HELA EC50.

Where a name gives a salt, the structure may show the parent alone. Some results are limits rather than exact numbers.

Procedure for in vitro: (§1) Black 384-well clear-bottom microtiter plates (Corning, Amsterdam, The Netherlands) were filled via acoustic drop ejection using the echo liquid handler (Labcyte, Sunnyvale, Calif.). 200 nL of compound stock solutions (100% DMSO) were transferred to the assay plates. 9 serial 4-fold dilutions of compound were made, creating per quadrant the same compound concentration. The assay was initiated by adding 10 μL of culture medium to each well (RPMI medium without phenol red, 10% FBS-heat inactivated, 0.04% gentamycin (50 mg/mL). All addition steps are done by using a multidrop dispenser (Thermo Scientific, Erembodegem, Belgium). Next, rgRSV224 virus (MOI=1) diluted in culture medium was added to the plates. rgRSV224 virus is an engineered virus that includes an additional GFP gene (Hallak L K, Spillmann D, Collins P L, Peeples M E. Glycosaminoglycan sulfation requirements for respiratory syncytial virus infection; Journal of virology (2000), 74(22), 10508-13) and was in-licensed from the NIH (Bethesda, Md., USA). Finally, 20 μL of a HeLa cell suspension (3,000 cells/well) were plated. Medium, virus- and mock-infected controls were included in each test. The wells contain 0.05% DMSO per volume. Cells were incubated at 37° C. in a 5% CO2 atmosphere. Three days post-virus exposure, viral replication was quantified by measuring GFP expression in the cells by an in house developed MSM laser microscope (Tibotec, Beerse, Belgium). The EC50 was defined as the 50% inhibitory concentration for GFP expression. In parallel, compounds were incubated for three days in a set of white 384-well microtiter plates (Corning) and the cytotoxicity of compounds in HeLa cells was determined by measuring the ATP content of the cells using the ATPlite kit (Perkin Elmer, Zaventem, Belgium) according to the manufacturer's instructions. The CC50 was defined as the 50% concentration for cytotoxicity.
Procedure for rgRSV224 virus: as §1

As to `C[C@@H]1c2ccccc2CCN1C(=O)c1cc(-c2ccccc2)n2nc(-c3ccc([C@@H]4C[C@H]4C(=O)NS(C)(=O)=O)cc3F)cc2n1` (single isomer, unassigned) (as salt: salt) [Compound 32, (1*R,2*R)-2-(3-Fluoro-4-{5-[(1R)-1-methyl-1,2,3,4-tetrahydroisoquinoline-2-carbonyl]-7-phenylpyrazolo[1,5-a]pyrimidin-2-yl}phenyl)-N-methanesulfonyl-cyclopropane-1-carboxamide; propan-2-amine salt], the melting point (usually the temperature of the solid-liquid transition) was determined as 186.79 °C. Regarding `C[C@@H]1c2ccccc2CCN1C(=O)c1cc(C2CC2)n2nc(-c3ccc([C@H]4C[C@@H]4NS(C)(=O)=O)cc3F)cc2n1` [Compound 36, N-[(1S,2R)-2-(4-{7-Cyclopropyl-5-[(1R)-1-methyl-1,2,3,4-tetrahydroisoquinoline-2-carbonyl]pyrazolo[1,5-a]pyrimidin-2-yl}-3-fluorophenyl)cyclopropyl]methanesulfonamide], the CC50 at 3 days in “in vitro” is > 100 µM. Further, in the series with rgRSV224 virus, the EC50 – broadly, the concentration that produces a half-maximal response – came to 0.11 µM. Taken in the same sequence, the figures for `C[C@@H]1c2ccccc2CCN1C(=O)c1cc(C2CC2)n2nc(-c3ccc([C@H]4C[C@@H]4O)cc3F)cc2n1` [Compound 38, (1S,2R)-2-(4-{7-Cyclopropyl-5-[(1R)-1-methyl-1,2,3,4-tetrahydroisoquinoline-2-carbonyl]pyrazolo[1,5-a]pyrimidin-2-yl}-3-fluorophenyl)cyclopropan-1-ol] were 50.4 µM and 0.159 µM. The corresponding values for `C[C@@H]1c2ccccc2CCN1C(=O)c1cc(C2CC2)n2nc(-c3ccc([C@H]4C[C@H](CO)C4)cc3F)cc2n1` [Compound 41, [trans-3-(4-{7-Cyclopropyl-5-[(1R)-1-methyl-1,2,3,4-tetrahydroisoquinoline-2-carbonyl]pyrazolo[1,5-a]pyrimidin-2-yl}-3-fluorophenyl)cyclobutyl]methanol] are 49.8 µM and 0.152 µM. On to `C[C@@H]1c2ccccc2CCN1C(=O)c1cc(C2CC2)n2nc(-c3ccc([C@H]4C[C@H](COC(N)=O)C4)cc3F)cc2n1` [Compound 43, [trans-3-(4-{7-Cyclopropyl-5-[(1R)-1-methyl-1,2,3,4-tetrahydroisoquinoline-2-carbonyl]pyrazolo[1,5-a]pyrimidin-2-yl}-3-fluorophenyl)cyclobutyl]methyl carbamate], for which the CC50 at 3 days in “in vitro” is > 100 µM. Moreover, the EC50 with rgRSV224 virus worked out at 0.307 µM.

Regarding `C[C@@H]1c2ccccc2CCN1C(=O)c1cc(C2CC2)n2nc(-c3ccc([C@H]4C[C@H](CC(N)=O)C4)cc3F)cc2n1` [Compound 45, 2-[trans-3-(4-{7-Cyclopropyl-5-[(1R)-1-methyl-1,2,3,4-tetrahydroisoquinoline-2-carbonyl]pyrazolo[1,5-a]pyrimidin-2-yl}-3-fluorophenyl)cyclobutyl]acetamide], in “in vitro”, the CC50 at 3 days worked out at 29.5 µM. Also, the EC50 in the series with rgRSV224 virus was determined as 0.146 µM. For the compound `C[C@@H]1c2ccccc2CCN1C(=O)c1cc(C2CC2)n2nc(-c3ccc([C@H]4C[C@@H](CC(N)=O)C4)cc3F)cc2n1` [Compound 46, 2-[cis-3-(4-{7-Cyclopropyl-5-[(1R)-1-methyl-1,2,3,4-tetrahydroisoquinoline-2-carbonyl]pyrazolo[1,5-a]pyrimidin-2-yl}-3-fluorophenyl)cyclobutyl]acetamide], in the series “in vitro”, the CC50 at 3 days came to 30.4 µM. For the same compound, in the series with rgRSV224 virus, the EC50 was found to be 0.145 µM. The corresponding values for `CNC(=O)C[C@H]1C[C@H](c2ccc(-c3cc4nc(C(=O)N5CCc6ccccc6[C@H]5C)cc(C5CC5)n4n3)c(F)c2)C1` [Compound 47, N-methyl-2-[trans-3-(4-{7-cyclopropyl-5-[(1R)-1-methyl-1,2,3,4-tetrahydroisoquinoline-2-carbonyl]pyrazolo[1,5-a]pyrimidin-2-yl}-3-fluorophenyl)cyclobutyl]acetamide] are 25.8 µM and 0.148 µM.

The record behind these values is patent US11491157B2, “Cycloalkyl substituted pyrazolopyrimidines having activity against RSV” (priority 2018, dated 2022).
